# Source: ChEMBL document CHEMBL3045932 (J Pestic Sci, 2005)
# Activity calls are given as the source filed them. The calls are words filed in the database; no cut-off is given here.
# Tests used:
# Oryza sativa [1] = assay: Toxicity in zero transplanted Oryza sativa (rice) assessed as growth inhibition at 5 to 10 g/a by greenhouse test; assay type: organism-based; conditions: in vivo
# Echinochloa oryzicola [2] = assay: Herbicidal activity against Echinochloa oryzicola assessed as shoot length after 7 days by hydroponics test in presence of triphenyl phosphate; assay type: functional, organism-based
# Oryza sativa [3] = assay: Drug metabolism in 2.5-leaf stage Oryza sativa (rice) assessed as 1-[1-(3,5-dichlorophenyl)-1-methylethyl]-4-methyl-3-phenyl-3-pyrrolin-2-one level per gram of fresh weight at 25 nM after 6 days; assay type: ADME, organism-based; conditions: in vivo, 144 h, 0.025 µM
# [4] = Drug metabolism assessed as parent compound level in presence of porcine esterase and 10 uM of triphenyl phosphate; assay type: physicochemical; conditions: pig, isolated protein
# Echinochloa oryzicola [5] = assay: Drug metabolism in 2.5-leaf stage Echinochloa oryzicola assessed as 1-[1-(3,5-dichlorophenyl)-1-methylethyl]-4-methyl-3-phenyl-3-pyrrolin-2-one level per gram of fresh weight at 25 nM after 6 days; assay type: ADME, organism-based; conditions: in vivo, 144 h, 0.025 µM
# Echinochloa oryzicola [6] = assay: Herbicidal activity against Echinochloa oryzicola assessed as shoot length after 7 days by hydroponics test; assay type: functional, organism-based; conditions: 168 h, read-out: I50
# [7] = Drug metabolism assessed as formation of 1-[1-(3,5-dichlorophenyl)-1-methylethyl]-4-methyl-3-phenyl-3-pyrrolin-2-one in presence of porcine esterase and 1 uM triphenyl phosphate; assay type: physicochemical; conditions: pig, isolated protein
# Echinochloa oryzicola [8] = assay: Herbicidal activity against 2.5-leaf stage of Echinochloa oryzicola assessed as growth inhibition at 2.5 g/a by greenhouse test in presence of triphenyl phosphate; assay type: functional, organism-based
# Echinochloa oryzicola [9] = assay: Herbicidal activity against Echinochloa oryzicola assessed as shoot length after 7 days by hydroponics test in presence of 1-aminobenzotriazole; assay type: functional, organism-based
# Echinochloa oryzicola [10] = assay: Herbicidal activity against Echinochloa oryzicola assessed as shoot length after 7 days by hydroponics test in presence of fenitrothion; assay type: functional, organism-based
# Oryza sativa [11] = assay: Toxicity in zero transplanted Oryza sativa (rice) assessed as growth inhibition at 5 to 10 g/a by greenhouse test in presence of fenitrothion; assay type: organism-based; conditions: in vivo
# [12] = Drug metabolism assessed as parent compound level in presence of porcine esterase and 1 uM of triphenyl phosphate; assay type: physicochemical; conditions: pig, isolated protein
# Oryza sativa [13] = assay: Toxicity in zero transplanted Oryza sativa (rice) assessed as growth inhibition at 5 to 10 g/a by greenhouse test in presence of triphenyl phosphate; assay type: organism-based; conditions: in vivo
# [14] = Drug metabolism assessed as formation of 1-[1-(3,5-dichlorophenyl)-1-methylethyl]-4-methyl-3-phenyl-3-pyrrolin-2-one in presence of porcine esterase and 10 uM triphenyl phosphate; assay type: physicochemical; conditions: pig, isolated protein
# [15] = Drug metabolism assessed as formation of 1-[1-(3,5-dichlorophenyl)-1-methylethyl]-4-methyl-3-phenyl-3-pyrrolin-2-one in presence of porcine esterase; assay type: physicochemical; conditions: pig, isolated protein
# Echinochloa oryzicola [16] = assay: Herbicidal activity against 2.5-leaf stage of Echinochloa oryzicola assessed as growth inhibition at 2.5 g/a by greenhouse test; assay type: functional; conditions: read-out: GI
# [17] = Drug metabolism assessed as parent compound level in presence of porcine esterase; assay type: physicochemical; conditions: pig, isolated protein
# Oryza sativa [18] = assay: Toxicity in 2 cm transplanted Oryza sativa (rice) assessed as growth inhibition at 10 g/a by greenhouse test; assay type: organism-based; conditions: in vivo
# Oryza sativa [19] = assay: Toxicity in Oryza sativa (rice) assessed as shoot length after 7 days by hydroponics test; assay type: organism-based; conditions: 168 h, read-out: I50
# Echinochloa oryzicola [20] = assay: Herbicidal activity against 2.5-leaf stage of Echinochloa oryzicola assessed as growth inhibition at 2.5 g/a by greenhouse test in presence of fenitrothion; assay type: functional, organism-based
# Echinochloa oryzicola [21] = assay: Herbicidal activity against Echinochloa oryzicola assessed as shoot length after 7 days by hydroponics test in presence of tributylphosphate; assay type: functional, organism-based
smiles,measurement,setting,value
COC(=O)C1(c2ccccc2)C(=O)N(C(C)(C)c2cc(Cl)cc(Cl)c2)C=C1C (stereo not given),Activity,Oryza sativa [1],Toxic
same,Activity,Echinochloa oryzicola [2],inactive
same,Drug metabolism,Oryza sativa [3],0.47 nM
same,Drug metabolism,[4],4.26 µM
same,Drug metabolism,Echinochloa oryzicola [5],1.88 nM
same,IC50,Echinochloa oryzicola [6],25 nM
same,Drug metabolism,[7],2.69 µM
same,growth inhibition (GI),Echinochloa oryzicola [8],inactive
same,Activity,Echinochloa oryzicola [9],Active
same,Activity,Echinochloa oryzicola [10],inactive
same,Activity,Oryza sativa [11],Non-toxic
same,Drug metabolism,[12],2.5 µM
same,Activity,Oryza sativa [13],Non-toxic
same,Drug metabolism,[14],0.66 µM
same,Drug metabolism,[15],3 µM
same,inhibition of growth at 250 g/ha,Echinochloa oryzicola [16],96%
same,Drug metabolism,[17],1.97 µM
same,Activity,Oryza sativa [18],Non-toxic
same,IC50,Oryza sativa [19],2630 nM
same,growth inhibition (GI),Echinochloa oryzicola [20],inactive
same,Activity,Echinochloa oryzicola [21],Active
CC1=C(c2ccccc2)C(=O)N(C(C)(C)c2cc(Cl)cc(Cl)c2)C1,IC50,Echinochloa oryzicola [6],12 nM
same,growth inhibition (GI),Echinochloa oryzicola [8],Active
same,IC50,Oryza sativa [19],115 nM
same,growth inhibition (GI),Echinochloa oryzicola [20],Active
